Experimental data: ChEMBL document CHEMBL5376026, “Design, synthesis, and antiproliferative evaluation of novel dehydroabietic acid-1,2,3-triazole-oxazolidinone hybrids” (RSC Med Chem, 2024)
Activity calls are given as the source filed them. No cut-off for these calls is given here.

Tests used:
MGC-803 [1] = experiment: Induction of apoptosis in human MGC-803 cells assessed as late apoptotic cells at 5 uM incubated for 48 hrs by Annexin-V FITC and PI staining based flow cytometry (reference value: 0.81%); assay type: functional
MGC-803 [2] = experiment: Induction of cell cycle arrest in human MGC-803 cells assessed as accumulation of cells at G2/M phase at 5 uM incubated for 48 hrs by propidium iodide staining based flow cytometry (reference value: 16.81%); assay type: functional
MGC-803 [3] = experiment: Induction of cell cycle arrest in human MGC-803 cells assessed as accumulation of cells at S phase at 2.5 uM incubated for 48 hrs by propidium iodide staining based flow cytometry (reference value: 33.22%); assay type: functional
MGC-803 [4] = experiment: Induction of cell cycle arrest in human MGC-803 cells assessed as accumulation of cells at G0/G1 phase at 2.5 uM incubated for 48 hrs by propidium iodide staining based flow cytometry (reference value: 50.67%); assay type: functional
MGC-803 [5] = experiment: Induction of apoptosis in human MGC-803 cells assessed as apoptosis rate at 10 uM incubated for 48 hrs by Annexin-V FITC and PI staining based flow cytometry (reference value: 0.42%); assay type: functional
MGC-803 [6] = experiment: Induction of cell cycle arrest in human MGC-803 cells assessed as accumulation of cells at S phase at 5 uM incubated for 48 hrs by propidium iodide staining based flow cytometry (reference value: 33.22%); assay type: functional
MGC-803 [7] = experiment: Induction of apoptosis in human MGC-803 cells assessed as necrotic cells at 10 uM incubated for 48 hrs by Annexin-V FITC and PI staining based flow cytometry (reference value: 0.68%); assay type: functional
MGC-803 [8] = experiment: Induction of apoptosis in human MGC-803 cells assessed as viable cells at 2.5 uM incubated for 48 hrs by Annexin-V FITC and PI staining based flow cytometry (reference value: 98.3%); assay type: functional; details: read-out: Activity
T-24 = experiment: Anticancer activity against human T-24 cells assessed as inhibition of cell growth incubated for 48 hrs by MTT assay; assay type: functional, cell-based; details: T-24, 48 h
MGC-803 [9] = experiment: Induction of apoptosis in human MGC-803 cells assessed as early apoptotic cells at 10 uM incubated for 48 hrs by Annexin-V FITC and PI staining based flow cytometry (reference value: 0.20%); assay type: functional
MGC-803 [10] = experiment: Induction of apoptosis in human MGC-803 cells assessed as early apoptotic cells at 5 uM incubated for 48 hrs by Annexin-V FITC and PI staining based flow cytometry (reference value: 0.20%); assay type: functional
MGC-803 [11] = experiment: Induction of reactive oxygen species generation in human MGC-803 cells at 2.5 to 10 uM incubated for 48 hrs by DCFH-DA staining based fluorescence microscopic analysis; assay type: functional, cell-based; details: dose 2.5-10 µM
MGC-803 [12] = experiment: Induction of apoptosis in human MGC-803 cells assessed as apoptosis rate at 2.5 uM incubated for 48 hrs by Annexin-V FITC and PI staining based flow cytometry (reference value: 0.42%); assay type: functional
MGC-803 [13] = experiment: Induction of cell cycle arrest in human MGC-803 cells assessed as accumulation of cells at G0/G1 phase at 10 uM incubated for 48 hrs by propidium iodide staining based flow cytometry (reference value: 50.67%); assay type: functional
MGC-803 [14] = experiment: Induction of apoptosis in human MGC-803 cells assessed as necrotic cells at 2.5 uM incubated for 48 hrs by Annexin-V FITC and PI staining based flow cytometry (reference value: 0.68%); assay type: functional
MGC-803 [15] = experiment: Induction of apoptosis in human MGC-803 cells assessed as chromatin condensation incubated for 48 hrs by Hoechst 33258 staining based fluorescence microscopic analysis; assay type: functional, cell-based; details: dose 2.5-10 µM
MGC-803 [16] = experiment: Induction of cell cycle arrest in human MGC-803 cells assessed as accumulation of cells at G0/G1 phase at 5 uM incubated for 48 hrs by propidium iodide staining based flow cytometry (reference value: 50.67%); assay type: functional
MGC-803 [17] = experiment: Induction of mitochondrial membrane potential loss in human MGC-803 cells at 2.5 uM incubated for 10 to 24 hrs by JC-1 staining based fluorescence microscopic assay; assay type: functional, cell-based; details: time 10-24 hrs
MGC-803 [18] = experiment: Induction of cell cycle arrest in human MGC-803 cells assessed as accumulation of cells at G2/M phase at 10 uM incubated for 48 hrs by propidium iodide staining based flow cytometry (reference value: 16.81%); assay type: functional
MGC-803 [19] = experiment: Induction of apoptosis in human MGC-803 cells assessed as late apoptotic cells at 2.5 uM incubated for 48 hrs by Annexin-V FITC and PI staining based flow cytometry (reference value: 0.81%); assay type: functional
MGC-803 [20] = experiment: Induction of apoptosis in human MGC-803 cells assessed as viable cells at 5 uM incubated for 48 hrs by Annexin-V FITC and PI staining based flow cytometry (reference value: 98.3%); assay type: functional; details: read-out: Activity
MGC-803 [21] = experiment: Induction of apoptosis in human MGC-803 cells assessed as increase in apoptotic nuclei incubated for 48 hrs by Hoechst 33258 staining based fluorescence microscopic analysis; assay type: functional, cell-based; details: dose 2.5-10 µM
MGC-803 [22] = experiment: Induction of cell cycle arrest in human MGC-803 cells assessed as accumulation of cells at G2/M phase at 2.5 uM incubated for 48 hrs by propidium iodide staining based flow cytometry (reference value: 16.81%); assay type: functional
HepG2 = experiment: Anticancer activity against human HepG2 cells assessed as inhibition of cell growth incubated for 48 hrs by MTT assay; assay type: functional, cell-based; details: HepG2, 48 h
MGC-803 [23] = experiment: Induction of apoptosis in human MGC-803 cells assessed as apoptosis rate at 5 uM incubated for 48 hrs by Annexin-V FITC and PI staining based flow cytometry (reference value: 0.42%); assay type: functional
MGC-803 [24] = experiment: Induction of apoptosis in human MGC-803 cells assessed as viable cells at 10 uM incubated for 48 hrs by Annexin-V FITC and PI staining based flow cytometry (reference value: 98.3%); assay type: functional; details: read-out: Activity
MGC-803 [25] = experiment: Anticancer activity against human MGC-803 cells assessed as inhibition of cell growth incubated for 48 hrs by MTT assay; assay type: functional, cell-based; details: MGC-803, 48 h
[26] = Cytotoxicity against human LO2 cells assessed as reduction in cell viability incubated for 48 hrs by MTT assay; assay type: toxicity, cell-based, L02
MGC-803 [27] = experiment: Induction of cell cycle arrest in human MGC-803 cells assessed as accumulation of cells at S phase at 10 uM incubated for 48 hrs by propidium iodide staining based flow cytometry (reference value: 33.22%); assay type: functional
MGC-803 [28] = experiment: Induction of apoptosis in human MGC-803 cells assessed as late apoptotic cells at 10 uM incubated for 48 hrs by Annexin-V FITC and PI staining based flow cytometry (reference value: 0.81%); assay type: functional
MGC-803 [29] = experiment: Induction of apoptosis in human MGC-803 cells assessed as early apoptotic cells at 2.5 uM incubated for 48 hrs by Annexin-V FITC and PI staining based flow cytometry (reference value: 0.20%); assay type: functional
MGC-803 [30] = experiment: Induction of apoptosis in human MGC-803 cells assessed as necrotic cells at 5 uM incubated for 48 hrs by Annexin-V FITC and PI staining based flow cytometry (reference value: 0.68%); assay type: functional
HeLa = experiment: Anticancer activity against human HeLa cells assessed as inhibition of cell growth incubated for 48 hrs by MTT assay; assay type: functional, cell-based

## CC(C)c1ccc2c(c1)CC[C@H]1[C@](C)(C(=O)OCc3cn(CC4CN(c5ccc(Br)cc5)C(=O)O4)nn3)CCC[C@]21C (stereo partly drawn)
MGC-803 [1]
  Activity: 12%
MGC-803 [2]
  Activity: 12.52%
MGC-803 [3]
  Activity: 34.79%
MGC-803 [4]
  Activity: 52.14%
MGC-803 [5]
  Activity: 33.34%
MGC-803 [6]
  Activity: 33.63%
MGC-803 [7]
  Activity: 1.25%
MGC-803 [8]
  viability at 2.5 µM: 87.5%
T-24
  IC50: 14.2 µM
MGC-803 [9]
  Activity: 82.1%
MGC-803 [10]
  Activity: 16.2%
MGC-803 [11]
  Activity: Active
MGC-803 [12]
  Activity: 6%
MGC-803 [13]
  Activity: 55.64%
MGC-803 [14]
  Activity: 1.32%
MGC-803 [15]
  Activity: Dose-Dependent Effect
MGC-803 [16]
  Activity: 54.14%
MGC-803 [17]
  Activity: Active
MGC-803 [18]
  Activity: 11.23%
MGC-803 [19]
  Activity: 6.25%
MGC-803 [20]
  viability at 5 µM: 68.8%
MGC-803 [21]
  Activity: Dose-Dependent Effect
MGC-803 [22]
  Activity: 13.7%
HepG2
  IC50: 11.7 µM
MGC-803 [23]
  Activity: 8.87%
MGC-803 [24]
  viability at 10 µM: 14%
MGC-803 [25]
  IC50: 3.18 µM
[26]
  IC50 at 48 h: 40 µM
MGC-803 [27]
  Activity: 33.22%
MGC-803 [28]
  Activity: 2.64%
MGC-803 [29]
  Activity: 4.89%
MGC-803 [30]
  Activity: 2.9%
HeLa
  IC50: 25.3 µM
